# Reference: PubChem BioAssay (NCI)
#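 GI50 = concentration required for 50% inhibition of growth. TGI denotes the concentration required for complete inhibition of growth.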
# Assays:
# Experiment in all cases: inhibition of tumour cell growth, NCI panel, 384-well format
# 786-0 renal = system: 786-0 renal
# A498 renal = system: A498 renal
# A549 NSCLC = system: A549 NSCLC
# ACHN renal = system: ACHN renal
# BT-549 breast = system: BT-549 breast
# CAKI-1 renal = system: CAKI-1 renal
# CCRF-CEM leukemia = system: CCRF-CEM leukemia
# COLO 205 colon = system: COLO 205 colon
# DU-145 prostate = system: DU-145 prostate
# EKVX NSCLC = system: EKVX NSCLC
# HCC-2998 colon = system: HCC-2998 colon
# HCT-116 colon = system: HCT-116 colon
# HCT-15 colon = system: HCT-15 colon
# HL-60(TB) leukemia = system: HL-60(TB) leukemia
# HOP-62 NSCLC = system: HOP-62 NSCLC
# HOP-92 NSCLC = system: HOP-92 NSCLC
# HS 578T breast = system: HS 578T breast
# HT29 colon = system: HT29 colon
# IGROV1 ovarian = system: IGROV1 ovarian
# K-562 leukemia = system: K-562 leukemia
# KM12 colon = system: KM12 colon
# LOX IMVI melanoma = system: LOX IMVI melanoma
# M14 melanoma = system: M14 melanoma
# MALME-3M melanoma = system: MALME-3M melanoma
# MCF7 breast = system: MCF7 breast
# MDA-MB-231 breast = system: MDA-MB-231 breast
# MDA-MB-435 melanoma = system: MDA-MB-435 melanoma
# MDA-MB-468 breast = system: MDA-MB-468 breast
# MOLT-4 leukemia = system: MOLT-4 leukemia
# NCI-H226 lung = system: NCI-H226 lung
# NCI-H23 lung = system: NCI-H23 lung
# NCI-H322M lung = system: NCI-H322M lung
# NCI-H460 NSCLC = system: NCI-H460 NSCLC
# NCI-H522 lung = system: NCI-H522 lung
# OVCAR-3 ovarian = system: OVCAR-3 ovarian
# OVCAR-4 ovarian = system: OVCAR-4 ovarian
# OVCAR-5 ovarian = system: OVCAR-5 ovarian
# PC-3 prostate = system: PC-3 prostate
# RPMI-8226 leukemia = system: RPMI-8226 leukemia
# RXF 393 renal = system: RXF 393 renal
# SF-268 CNS = system: SF-268 CNS
# SF-295 CNS = system: SF-295 CNS
# SF-539 CNS = system: SF-539 CNS
# SK-MEL-2 melanoma = system: SK-MEL-2 melanoma
# SK-MEL-28 melanoma = system: SK-MEL-28 melanoma
# SK-MEL-5 melanoma = system: SK-MEL-5 melanoma
# SK-OV-3 ovarian = system: SK-OV-3 ovarian
# SN12C renal = system: SN12C renal
# SNB-19 CNS = system: SNB-19 CNS
# SNB-75 CNS = system: SNB-75 CNS
# SR leukemia = system: SR leukemia
# SW-620 colon = system: SW-620 colon
# TK-10 renal = system: TK-10 renal
# U251 glioblastoma = system: U251 glioblastoma
# UACC-257 melanoma = system: UACC-257 melanoma
# UACC-62 melanoma = system: UACC-62 melanoma
# UO-31 renal = system: UO-31 renal
compound,measurement,setting,value
Cc1[nH]c2ccc(F)cc2c1-c1nc2c3cccnc3c3ncccc3c2[nH]1,GI50,786-0 renal,176 nM
same,TGI,786-0 renal,586 nM
same,GI50,A498 renal,205 nM
same,TGI,A498 renal,> 100000 nM
same,GI50,A549 NSCLC,421 nM
same,TGI,A549 NSCLC,> 100000 nM
same,GI50,ACHN renal,241 nM
same,TGI,ACHN renal,686 nM
same,GI50,BT-549 breast,41.8 nM
same,TGI,BT-549 breast,254 nM
same,GI50,CAKI-1 renal,218 nM
same,TGI,CAKI-1 renal,572 nM
same,GI50,CCRF-CEM leukemia,37.6 nM
same,TGI,CCRF-CEM leukemia,136 nM
same,GI50,COLO 205 colon,35.3 nM
same,TGI,COLO 205 colon,141 nM
same,GI50,DU-145 prostate,60.7 nM
same,TGI,DU-145 prostate,413 nM
same,GI50,EKVX NSCLC,122 nM
same,TGI,EKVX NSCLC,14200 nM
same,GI50,HCC-2998 colon,24.2 nM
same,TGI,HCC-2998 colon,> 100000 nM
same,GI50,HCT-116 colon,52.1 nM
same,TGI,HCT-116 colon,654 nM
same,GI50,HCT-15 colon,245 nM
same,TGI,HCT-15 colon,29900 nM
same,GI50,HL-60(TB) leukemia,45.3 nM
same,TGI,HL-60(TB) leukemia,176 nM
same,GI50,HOP-62 NSCLC,129 nM
same,TGI,HOP-62 NSCLC,345 nM
same,GI50,HOP-92 NSCLC,194 nM
same,TGI,HOP-92 NSCLC,742 nM
same,GI50,HS 578T breast,318 nM
same,TGI,HS 578T breast,12100 nM
same,GI50,HT29 colon,338 nM
same,TGI,HT29 colon,> 100000 nM
same,GI50,IGROV1 ovarian,182 nM
same,TGI,IGROV1 ovarian,32900 nM
same,GI50,K-562 leukemia,217 nM
same,TGI,K-562 leukemia,> 100000 nM
same,GI50,KM12 colon,266 nM
same,TGI,KM12 colon,> 100000 nM
same,GI50,LOX IMVI melanoma,62.5 nM
same,TGI,LOX IMVI melanoma,231 nM
same,GI50,M14 melanoma,192 nM
same,TGI,M14 melanoma,472 nM
same,GI50,MALME-3M melanoma,195 nM
same,TGI,MALME-3M melanoma,743 nM
same,GI50,MCF7 breast,298 nM
same,TGI,MCF7 breast,40300 nM
same,GI50,MDA-MB-231 breast,228 nM
same,TGI,MDA-MB-231 breast,2930 nM
same,GI50,MDA-MB-435 melanoma,306 nM
same,TGI,MDA-MB-435 melanoma,> 100000 nM
same,GI50,MDA-MB-468 breast,74.5 nM
same,TGI,MDA-MB-468 breast,214 nM
same,GI50,MOLT-4 leukemia,37.4 nM
same,TGI,MOLT-4 leukemia,151 nM
same,GI50,NCI-H226 lung,147 nM
same,TGI,NCI-H226 lung,683 nM
same,GI50,NCI-H23 lung,233 nM
same,TGI,NCI-H23 lung,704 nM
same,GI50,NCI-H322M lung,125 nM
same,TGI,NCI-H322M lung,28500 nM
same,GI50,NCI-H460 NSCLC,367 nM
same,TGI,NCI-H460 NSCLC,4260 nM
same,GI50,NCI-H522 lung,244 nM
same,TGI,NCI-H522 lung,852 nM
same,GI50,OVCAR-3 ovarian,27.8 nM
same,TGI,OVCAR-3 ovarian,22200 nM
same,GI50,OVCAR-4 ovarian,96 nM
same,TGI,OVCAR-4 ovarian,> 100000 nM
same,GI50,OVCAR-5 ovarian,298 nM
same,TGI,OVCAR-5 ovarian,17600 nM
same,GI50,PC-3 prostate,69.9 nM
same,TGI,PC-3 prostate,> 100000 nM
same,GI50,RPMI-8226 leukemia,3110 nM
same,TGI,RPMI-8226 leukemia,15000 nM
same,GI50,RXF 393 renal,31.4 nM
same,TGI,RXF 393 renal,192 nM
same,GI50,SF-268 CNS,25 nM
same,TGI,SF-268 CNS,83.1 nM
same,GI50,SF-295 CNS,303 nM
same,TGI,SF-295 CNS,12000 nM
same,GI50,SF-539 CNS,125 nM
same,TGI,SF-539 CNS,404 nM
same,GI50,SK-MEL-2 melanoma,353 nM
same,TGI,SK-MEL-2 melanoma,934 nM
same,GI50,SK-MEL-28 melanoma,272 nM
same,TGI,SK-MEL-28 melanoma,> 100000 nM
same,GI50,SK-MEL-5 melanoma,25.2 nM
same,TGI,SK-MEL-5 melanoma,119 nM
same,GI50,SK-OV-3 ovarian,44.9 nM
same,TGI,SK-OV-3 ovarian,9450 nM
same,GI50,SN12C renal,161 nM
same,TGI,SN12C renal,397 nM
same,GI50,SNB-19 CNS,241 nM
same,TGI,SNB-19 CNS,883 nM
same,GI50,SNB-75 CNS,230 nM
same,TGI,SNB-75 CNS,759 nM
same,GI50,SR leukemia,19.2 nM
same,TGI,SR leukemia,33.9 nM
same,GI50,SW-620 colon,336 nM
same,TGI,SW-620 colon,> 100000 nM
same,GI50,TK-10 renal,450 nM
same,TGI,TK-10 renal,18800 nM
same,GI50,U251 glioblastoma,63.7 nM
same,TGI,U251 glioblastoma,710 nM
same,GI50,UACC-257 melanoma,227 nM
same,TGI,UACC-257 melanoma,603 nM
same,GI50,UACC-62 melanoma,204 nM
same,TGI,UACC-62 melanoma,587 nM
same,GI50,UO-31 renal,319 nM
same,TGI,UO-31 renal,7710 nM
